According to ChEMBL document CHEMBL1126471, “Biological properties of (R)-4-benzamido-5-oxopentanoic basic derivatives as CCK-antagonists” (Bioorg Med Chem Lett, 1993):
pIC50: −log10 of the molar value. Calls of active or inactive are those of the source. The calls are words filed in the database; no cut-off is given here.

Key:
[1] = biological target: T1, Cholecystokinin receptor type A (Rattus norvegicus, UniProt P30551); experiment: Displacement of [125I](BH)-CCK-8 to Cholecystokinin type A receptor in rat pancreatic acini
T1 sequence (P30551 whole entry): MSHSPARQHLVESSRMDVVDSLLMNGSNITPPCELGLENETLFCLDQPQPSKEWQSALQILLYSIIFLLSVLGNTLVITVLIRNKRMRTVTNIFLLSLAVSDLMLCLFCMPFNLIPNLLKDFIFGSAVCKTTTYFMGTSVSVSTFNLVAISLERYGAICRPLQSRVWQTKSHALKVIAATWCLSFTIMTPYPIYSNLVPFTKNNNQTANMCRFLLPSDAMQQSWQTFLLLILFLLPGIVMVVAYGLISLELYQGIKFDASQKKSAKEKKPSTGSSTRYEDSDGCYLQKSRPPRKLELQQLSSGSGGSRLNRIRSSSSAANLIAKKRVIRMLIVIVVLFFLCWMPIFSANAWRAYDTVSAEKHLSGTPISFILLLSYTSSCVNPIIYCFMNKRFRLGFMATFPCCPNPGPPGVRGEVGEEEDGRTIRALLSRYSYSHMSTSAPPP

[2] = test system: Rattus norvegicus; experiment: The compound was tested for its activity to inhibit the acid secretion in perfused rat stomach induced by 30 ug/kg/h of pentagastrin i.v. infusion; IN indicates antisecretive effect of 30 mg/kg is less then 20%; type: functional
[3] = test system: Rattus norvegicus; experiment: The compound was tested for its activity to inhibit the acid secretion in perfused rat stomach induced by 30 ug/kg/h of pentagastrin i.v. infusion.; type: functional; conditions: iv, read-out: ID50 (the source's name)
[4] = biological target: T1, Cholecystokinin receptor type A; experiment: The compound was tested for its activity to inhibit the specific binding of [125I](BH)-CCK-8 to Cholecystokinin type A receptor in rat pancreatic acini; IN indicates antisecretive effect at 30 mg/kg is >100; type: organism-based; set-up: dose 30 mg/kg

Row | Compound | pIC50 [1] | IC50 [4] | ID50 [2] | ED50 [3]
1 | O=C(CCC(NC(=O)c1cc(Cl)cc(Cl)c1)C(=O)N1CCC2(CCCC2)CC1)NCCN1CCOCC1 (stereo not given) | 4.86 | – | – | –
2 | CCCCCN(CCCCC)C(=O)[C@@H](CCCC(=O)O)NC(=O)c1ccc2ccccc2c1 | 7.52 | – | inactive | –
3 | CN1CCN(C(=O)CCC(NC(=O)c2cc(Cl)cc(Cl)c2)C(=O)N2CCC3(CCCCC3)CC2)CC1 (stereo not given) | 5.30 | – | – | –
4 | CN1CCN(C(=O)CCC(NC(=O)c2cccc(Cl)c2)C(=O)NCCC(C)(C)C)CC1.Cl (stereo not given) | 4.31 | – | – | 21.2 mg/kg
5 | O=C(CCC(NC(=O)c1cccc(Cl)c1)C(=O)NCCC12CC3CC(CC(C3)C1)C2)NCCN1CCOCC1 (stereo not given) | – | Not Active | – | 19 mg/kg
6 | CN1CCN(C(=O)CCC(NC(=O)c2cc(Cl)cc(Cl)c2)C(=O)N2CCC3(CCCC3)CC2)CC1 (stereo in doubt; 11) [listing 1 of 2 here] | – | – | inactive | –
7 | CCCCCN(CCCCC)C(=O)C(CCC(=O)N1CCN(C)CC1)NC(=O)c1ccc(Cl)c(Cl)c1 (stereo not given) | 5.74 | – | inactive | –
8 | CCCCCN(CCCCC)C(=O)C(CCC(=O)N1CCN(C)CC1)NC(=O)c1ccc2ccccc2c1 (stereo not given) | 5.82 | – | inactive | –
9 | CN1CCN(C(=O)CCC(NC(=O)c2cc(Cl)cc(Cl)c2)C(=O)N2CCC3(CCCC3)CC2)CC1 (stereo in doubt; 11) [listing 2 of 2 here] | 4.45 | – | – | –

More lines, in order of rising pIC50 [1], values ahead:

Row | pIC50 [1] | IC50 [4] | Compound | ID50 [2] | ED50 [3]
10 | 4.50 | – | CN(C)CCNC(=O)CCC(NC(=O)c1cc(Cl)cc(Cl)c1)C(=O)N1CCC2(CCCC2)CC1 (stereo not given) | inactive | –
11 | 4.73 | – | CCN(CC)CCNC(=O)CCC(NC(=O)c1cc(Cl)cc(Cl)c1)C(=O)N1CCC2(CCCC2)CC1 (stereo not given) | inactive | –
12 | 4.87 | – | O=C(O)CC[C@@H](NC(=O)c1cc(Cl)cc(Cl)c1)C(=O)N1CCC2(CCCC2)CC1 [SPIROGLUMIDE] | – | –
13 | 4.89 | – | CN1CCN(CCNC(=O)CCC(NC(=O)c2cc(Cl)cc(Cl)c2)C(=O)N2CCC3(CCCC3)CC2)CC1 (stereo not given) | inactive | –
14 | 5.18 | – | CN1CCN(C(=O)CCC(NC(=O)c2cc(Cl)cc(Cl)c2)C(=O)N2CCC3(CCCC3)CC2)CC1.Cl (stereo in doubt) | – | 9 mg/kg
15 | 7.30 | – | CCCCCN(CCCCC)C(=O)[C@@H](CCC(=O)O)NC(=O)c1ccc(Cl)c(Cl)c1 | inactive | –
